Data: patent US7699995B2, “Water treatment method” (priority 2006, dated 2010)

How the values were obtained:
[1] = tested on: Mycobacterium chelonae (ATCC 14472); experiment: High resolution MIC test, pure culture, 1/10x TSB; assay type: cell-based; conditions: M. chelonae, 24 hours at 37° C.
Method: (§1) The lowest concentration of microbicide required to inhibit bacteria was determined by a high resolution MIC test. Varying amounts of each microbicide were added to media in a 96-well microtiter plate. The media used for the MIC tests was 10% Trypicase Soy Broth ( 1/10× TSB). […] serial dilutions were performed on a Biomek 2000 Workstation to obtain a range of closely spaced concentrations of microbicides. A cell suspension of stationary phase microorganisms, adjusted to provide 10^6 colony forming units (CFU)/mL in each well for bacteria was added to the microtiter plate. The microtiter plates were incubated for 24 hours at 30° C. for Mycobacterium immunogenum and 37° C. for Mycobacterium chelonae. The presence or absence of microbial growth was determined by measuring the turbidity in each well using a Thermomax microplate reader set at an absorbance of 650 nm. The lowest concentration of compound in which no growth was observed was considered the MIC value for the microbicide. The MIC value for each microbicide was determined from the average of four determinations for bacteria.
(§2) Bacterial strains tested included Mycobacterium chelonae (ATCC 14472) and Mycobacterium immunogenum (ATCC 700505). Mycobacterial cultures were grown overnight at 30° C. (M. immunogenum) or 37° C. (M. chelonae), in a rotary shaking bath in Middlebrook […] with Middlebrook enrichment. A 1:20 dilution of the overnight culture was made into the appropriate test media and inoculated to give a final concentration of 10^6 to 10^7 CFU/ml.

[2] = tested on: Mycobacterium immunogenum (ATCC 700505); experiment: High resolution MIC test, pure culture, 1/10x TSB; assay type: cell-based; conditions: M. immunogenum, 24 hours at 30° C.
Method: as §1, §2

[3] = Stability with oxidizing and reducing agents at pH 7 and pH 9 (HPLC); assay type: physicochemical
Method: Oxidizing agents (2 mM) included hydrogen peroxide (H2O2; 68 ppm), t-butyl hydrogen peroxide (t-BHP; 180 ppm), and potassium persulfate (K2O8S2; 540 ppm). Reducing agents (2 mM) included iso-ascorbic acid (IAA; 352 ppm) and sodium bisulfite (NaHSO3; 208 ppm). Biocides were tested at 1 mM concentrations, representing 115 ppm MI and […].
The pH 7.0 buffer contained 0.00426% monopotassium phosphate plus 0.019% magnesium chloride hexahydrate. The pH 9.0 buffer contained 0.0046 M hydrochloric acid plus 0.013 M borax. Stock solutions of the redox agents were prepared and added to aliquots of each buffer to give 2 mM concentrations. The biocides were then added to give 1 mM concentrations. The samples were stored at 25° C. and analyzed for biocide level by HPLC at 0, 2 and 8 days.

[4] = tested on: natural, resident populations of Mycobacterium; experiment: Eradication of mycobacteria in naturally contaminated in-use metalworking fluids; assay type: cell-based; conditions: for No. of Fluids with ≧99% Kill (2-log reduction): of six fluids, 48 hours
Method: A comparative study was conducted evaluating six metalworking fluid biocides versus natural, resident populations of Mycobacterium from six in-use metalworking fluids. CMIT/MIT, CMIT/MIT/MCC, MIT, BIT, triazine, and PCMC microbicides were tested under controlled laboratory conditions to determine their efficacy at the maximum manufacturer's recommended dose rate (Table 2). The metalworking fluids were known to contain high levels of mycobacteria prior to dosing with biocides. Samples were then dosed with biocides, incubated with agitation at room temperature and viable mycobacteria counts determined after 48 hours by plating onto Middlebrook 7H10 medium, with Tween 80, glycerin, cyclohexamide, chloramphenicol, and gentamycin to suppress the growth of unwanted microorganisms.
The six metalworking fluid samples containing mycobacteria study from Example 7, were also tested using the same biocides with dosing at 50% of the maximum manufacturer's recommended rate (Table 2) under the same conditions. These metalworking fluids were known to contain high levels of mycobacteria prior to dosing with biocides. Samples were then dosed with biocides, incubated with agitation at room temperature and viable mycobacteria counts determined after 48 hours by plating onto Middlebrook 7H10 medium, with Tween 80, glycerin, cyclohexamide, chloramphenicol, and gentamycin to suppress the growth of unwanted microorganisms.

[5] = K-persulfate 2 mM, pH 7, 25° C.
[6] = K-persulfate 2 mM, pH 9, 25° C.
[7] = Na bisulfite 2 mM, pH 7, 25° C.
[8] = Na bisulfite 2 mM, pH 9, 25° C.
[9] = Fluid 1, 48 hours, 50% of recommended maximum dose
[10] = Fluid 1, 48 hours, 100% of recommended maximum dose
[11] = Fluid 2, 48 hours, 50% of recommended maximum dose
[12] = Fluid 2, 48 hours, 100% of recommended maximum dose
[13] = Fluid 3, 48 hours, 50% of recommended maximum dose
[14] = Fluid 3, 48 hours, 100% of recommended maximum dose
[15] = Fluid 4, 48 hours, 50% of recommended maximum dose
[16] = Fluid 4, 48 hours, 100% of recommended maximum dose
[17] = Fluid 5, 48 hours, 50% of recommended maximum dose
[18] = Fluid 5, 48 hours, 100% of recommended maximum dose
[19] = Fluid 6, 48 hours, 50% of recommended maximum dose
[20] = Fluid 6, 48 hours, 100% of recommended maximum dose

| Structure (SMILES) | Minimum Inhibitory Concentration [1] | Minimum Inhibitory Concentration [2] | % Remaining after 2 Days ([3]; H2O2 2 mM, pH 7, 25° C.) | % Remaining after 8 Days ([3]; H2O2 2 mM, pH 7, 25° C.) | % Remaining after 2 Days ([3]; H2O2 2 mM, pH 9, 25° C.) | % Remaining after 8 Days ([3]; H2O2 2 mM, pH 9, 25° C.) | % Remaining after 2 Days ([3]; IAA 2 mM, pH 7, 25° C.) | % Remaining after 8 Days ([3]; IAA 2 mM, pH 7, 25° C.) | % Remaining after 2 Days ([3]; IAA 2 mM, pH 9, 25° C.) | % Remaining after 8 Days ([3]; IAA 2 mM, pH 9, 25° C.) | % Remaining after 2 Days [3, 5] | % Remaining after 8 Days [3, 5] | % Remaining after 2 Days [3, 6] | % Remaining after 8 Days [3, 6] | % Remaining after 2 Days [3, 7] | % Remaining after 8 Days [3, 7] | % Remaining after 2 Days [3, 8] | % Remaining after 8 Days [3, 8] | % Remaining after 2 Days ([3]; no redox agent, pH 7, 25° C.) | % Remaining after 8 Days ([3]; no redox agent, pH 7, 25° C.) | other results |
| --- | --- | --- | --- | --- | --- | --- | --- | --- | --- | --- | --- | --- | --- | --- | --- | --- | --- | --- | --- | --- | --- |
| O=c1[nH]sc2ccccc12 [BIT, 1,2-benzisothiazolin-3-one, reference compound] | 63 ppm active | 113 ppm active | 39% | 15% | 8% | 0% | 89% | 86% | 77% | 75% | 0% | 0% | 0% | 0% | 38% | 28% | 82% | 77% | 100% | 100% | % Remaining after 2 Days ([3]; no redox agent, pH 9, 25° C.): 100%; % Remaining after 8 Days ([3]; no redox agent, pH 9, 25° C.): 100%; % Remaining after 2 Days ([3]; t-BHP 2 mM, pH 7, 25° C.): 43%; % Remaining after 8 Days ([3]; t-BHP 2 mM, pH 7, 25° C.): 8%; % Remaining after 2 Days ([3]; t-BHP 2 mM, pH 9, 25° C.): 38%; % Remaining after 8 Days ([3]; t-BHP 2 mM, pH 9, 25° C.): 6%; Log Reduction in Mycobacterial Counts versus Control (no biocide) [4, 9]: 0.00 log; Log Reduction in Mycobacterial Counts versus Control (no biocide) [4, 10]: 0.00 log; Log Reduction in Mycobacterial Counts versus Control (no biocide) [4, 11]: 0.00 log; Log Reduction in Mycobacterial Counts versus Control (no biocide) [4, 12]: 0.00 log; Log Reduction in Mycobacterial Counts versus Control (no biocide) [4, 13]: 0.00 log; Log Reduction in Mycobacterial Counts versus Control (no biocide) [4, 14]: 0.60 log; Log Reduction in Mycobacterial Counts versus Control (no biocide) [4, 15]: 0.00 log; Log Reduction in Mycobacterial Counts versus Control (no biocide) [4, 16]: 0.00 log; Log Reduction in Mycobacterial Counts versus Control (no biocide) [4, 17]: 0.00 log; Log Reduction in Mycobacterial Counts versus Control (no biocide) [4, 18]: 0.06 log; Log Reduction in Mycobacterial Counts versus Control (no biocide) [4, 19]: 0.00 log; Log Reduction in Mycobacterial Counts versus Control (no biocide) [4, 20]: 0.00 log; No. of Fluids with ≧99% Kill (2-log reduction) ([4]; 50% of recommended maximum dose): 0; No. of Fluids with ≧99% Kill (2-log reduction) ([4]; 100% of recommended maximum dose): 0 |
| Cn1sccc1=O [MI, 2-methyl-4-isothiazolin-3-one] | 15 ppm active | 50 ppm active | 100% | 100% | 94% | 88% | 100% | 96% | 105% | 103% | 90% | 75% | 93% | 73% | 29% | 26% | 70% | 78% | 100% | 100% | % Remaining after 2 Days ([3]; no redox agent, pH 9, 25° C.): 100%; % Remaining after 8 Days ([3]; no redox agent, pH 9, 25° C.): 100%; % Remaining after 2 Days ([3]; t-BHP 2 mM, pH 7, 25° C.): 99%; % Remaining after 8 Days ([3]; t-BHP 2 mM, pH 7, 25° C.): 102%; % Remaining after 2 Days ([3]; t-BHP 2 mM, pH 9, 25° C.): 98%; % Remaining after 8 Days ([3]; t-BHP 2 mM, pH 9, 25° C.): 96%; Log Reduction in Mycobacterial Counts versus Control (no biocide) [4, 9]: 3.48 log; Log Reduction in Mycobacterial Counts versus Control (no biocide) [4, 10]: 5.88 log; Log Reduction in Mycobacterial Counts versus Control (no biocide) [4, 11]: 3.80 log; Log Reduction in Mycobacterial Counts versus Control (no biocide) [4, 12]: 5.00 log; Log Reduction in Mycobacterial Counts versus Control (no biocide) [4, 13]: 0.00 log; Log Reduction in Mycobacterial Counts versus Control (no biocide) [4, 14]: 2.00 log; Log Reduction in Mycobacterial Counts versus Control (no biocide) [4, 15]: 2.00 log; Log Reduction in Mycobacterial Counts versus Control (no biocide) [4, 16]: 3.64 log; Log Reduction in Mycobacterial Counts versus Control (no biocide) [4, 17]: 0.06 log; Log Reduction in Mycobacterial Counts versus Control (no biocide) [4, 18]: 1.90 log; Log Reduction in Mycobacterial Counts versus Control (no biocide) [4, 19]: 1.78 log; Log Reduction in Mycobacterial Counts versus Control (no biocide) [4, 20]: 3.88 log; kill (minimum degree of efficacy) ([4]; in all six samples of contaminated fluids, maximum recommended dose): > 90% |
